Source: patent publication US7335481B2, “Methods of identifying compounds that affect a fatty acid cell-surface receptor” (priority 2002, dated 2008)
Where two headings read alike, the source gives them in different places.

Columns and labels:
FFAR (R10; GPR40) [1] = target: T1, FFAR (R10; GPR40) (Homo sapiens, UniProt O14842); assay: HFF11 reporter cell assay, HFF11.pR10 cells expressing FFAR; type: cell-based; design: response of the R10 reporter cell line in the initial screening: dose or concentration left out as unconfirmed; conditions: for activation of FFAR: result in words; for response of the R10 reporter cell line in the initial screening: FIG. 1a/1b
T1 construct: expressed in transfected cells; host or cells: HFF11 reporter cells (HeLa-based), line HFF11.pR10
T1 sequence (O14842 whole entry): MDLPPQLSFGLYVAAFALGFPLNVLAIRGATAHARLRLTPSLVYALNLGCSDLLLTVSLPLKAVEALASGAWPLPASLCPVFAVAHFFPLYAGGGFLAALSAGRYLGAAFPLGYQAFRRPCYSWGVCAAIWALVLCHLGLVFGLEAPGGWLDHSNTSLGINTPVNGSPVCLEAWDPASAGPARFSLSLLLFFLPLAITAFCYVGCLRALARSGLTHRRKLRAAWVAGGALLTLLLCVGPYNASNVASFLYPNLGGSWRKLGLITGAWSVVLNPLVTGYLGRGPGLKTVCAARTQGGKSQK
Description: Construction of the HFF11 reporter cell lines (successor of the previously described HeLa based cell line, HF1) expressing the orphan GPCRs studied was performed as earlier reported. (Co-pending U.S. application Ser. No. 09/946,334 filed Sep. 21, 2001; Kotarsky et al. 2001.) They contain the reporter plasmid, pcFUS3, where the original promoter region has been extended by 6 NFkB and 6 STAT elements. (Co-pending U.S. application Ser. No. 09/946,334 filed Sep. 21, 2001; Kotarsky et al., unpublished.) On day 1, HFF11 reporter cells, with or without the test […] receptor, were seeded into 96-well plates at 20,000 cells per well in 100 μl growth medium. On day 3, the medium was removed and replaced by 90 μl serum-free medium. Substances (e.g., compounds) and controls were added in the appropriate concentrations 24 h later. Stimulations were performed at 37 degrees C. for 7 h. Cell lysates were assayed in a BMG Lumistar Galaxy luminometer as previously described. (Kotarsky et al., 2001.) Statistical analysis of the drug concentration-response data was carried out with the GraphPad PRISM software package. In the initial screening, reporter cell lines, with or without recombinant test receptors, were challenged with FFAs, such as AA and LA, at […]. Ten cell lines expressing ten “orphan receptors” (one receptor per cell line) were screened. The expressed receptors were labeled R1-R10.

FFAR (R10; GPR40) [2] = target: T1, FFAR (R10; GPR40); assay: Aequorin reporter assay (calcium release) in CHO and HeLa cells transiently transfected with R10; type: cell-based; conditions: CHO and HeLa cells co-transfected with R10 and aequorin, versus sham-transfected cells, FIG. 2
Description: Cells were seeded the day before transfection in a 6-well plate (400,000 cells/well). Then, 0.8 μg of PCDM.AEQ reporter plasmid (Button et al., 1993.) and 1 μg pIRESpuro.R10 receptor plasmid, or pcEGFP for controls, were mixed with 100 μl OptiMEM containing 5 μl per transfection of PLUS reagent. After 15 min., 100 μl OptiMEM and 9 μl (HeLa cells) or 6 μl (CHO cells) of lipofectamine were added and incubated for another 15 min. Then, 800 μl OptiMEM were added, and the cells were washed and incubated with the transfection solution for 5 h. Two days after transfection, cells were loaded with 10 μM coelenterazine and injected into a 96-well plate containing test or control (vehicle) substances. Light emission was recorded for 1 min in a BMG Lumistar Galaxy luminometer and normalized to total emission using […] 100 mM CaCl2 for each well.
Activation of receptor R10 by LA was confirmed by stimulation in two different cell lines, CHO and HeLa, transiently co-transfected with expression vectors containing the R10 ORF (i.e., the gene encoding FFAR) and the calcium-activated photoprotein, aequorin. […] (FIG. 2.)

orphan receptors R1-R9 = assay: HFF11 reporter cell initial screening on the other orphan receptors; type: cell-based, human; design: dose or concentration left out as unconfirmed; conditions: data not shown
Excerpt: Taken together, this prompted an investigation of these FFAs using a screening approach aimed at identifying potential surface receptors. We used a highly sensitive reporter system (Kotarsky et al., 2001) expressing each of ten different putative human heptahelix receptors, for which the endogenous activating ligands were still unknown (i.e., “orphan receptors”), was used. The receptor sequences were selected from GenBank, based on a reasonably high sequence homology to the receptors for leukotriene B4 (an AA derivative), previously cloned. (Owman et al., 1996; Tryselius et al., 2000.)
Construction of the HFF11 reporter cell lines (successor of the previously described HeLa based cell line, HF1) expressing the orphan GPCRs studied was performed as earlier reported. (Co-pending U.S. application Ser. No. 09/946,334 filed Sep. 21, 2001; Kotarsky et al. 2001.) They contain the reporter plasmid, pcFUS3, where the original promoter region has been extended by 6 NFkB and 6 STAT elements. (Co-pending U.S. application Ser. No. 09/946,334 filed Sep. 21, 2001; Kotarsky et al., unpublished.) On day 1, HFF11 reporter cells, with or without the test heptahelix receptor, were seeded into 96-well plates at 20,000 cells per well in 100 μl growth medium. On day 3, the medium was removed and replaced by 90 μl serum-free medium. […]

[3] = FFAR response to free fatty acids, HFF11.pR10 reporter cell line, read-out: Mean EC50
[4] = HFF11 reporter cells expressing FFAR

Row | EC50 (FFAR (R10; GPR40) [1]; [3]) [µM] | activation of FFAR (FFAR (R10; GPR40) [1]; [4]) | Compound | other results
1 | 77.3 | activated FFAR | CCCCC/C=C\C=C\CCCCCCCCC(=O)O [CLA, trans-10, cis-12-octadecanoic acid] | –
2 | 20 | – | CCCCC/C=C\C/C=C\CCCCCCCCCC(=O)O [EDA, cis-11, cis-14- -eicosadienoic acid] | –
3 | 120 | – | CCCCCCCC/C=C/CCCCCCCC(=O)O [Elaidic acid, trans-9-octadecanoic acid] | –
4 | 38.4 | – | CCCCC/C=C\C/C=C\CCCCCCCC(=O)O [Linoleic acid, cis-9, cis-12,-octadecanoic acid] | response of the R10 reporter cell line in the initial screening (FFAR (R10; GPR40) [1]): strong and reproducible response; calcium-mediated luminescence upon stimulation (FFAR (R10; GPR40) [2]): calcium-mediated luminescence flash
5 | 25 | – | CCCC/C=C/CCCCCCCC(=O)O [Myristelaidic acid, trans-9-tetradecenoic acid] | –
6 | 123 | – | CCCCCCCC/C=C\CCCCCCCC(=O)O [Oleic acid, cis-9-octadecanoic acid] | –
7 | 143 | – | CCCCCCCCCCCCCCCC(=O)O [Palmitic acid, Hexadecanoic acid] | –
8 | 100 | – | CCCCCC/C=C\CCCCCCCC(=O)O [Palmitoleic acid, hexadecenoic acid] | –

The next lines start with the compound.

Row | Compound | EC50 (FFAR (R10; GPR40) [1]; [3]) [µM] | activation of FFAR (FFAR (R10; GPR40) [1]; [4]) | other results
9 | CCCCC/C=C\C=C\C(O)CCCCCCCC(=O)O (racemic) [9-HODE, (±)-9-hydroxy, trans-10, cis-12-octadecanoic acid] | 3.4 | activated FFAR | –
10 | CC1(COc2ccc(CC3SC(=O)NC3=O)cc2)CCCCC1 (racemic) [Ciglitazone, (±)-5-[4-(1-methylcyclohexylmethoxy)-benzyl]thiazolidine-2,4-dione] | – | strongly activated FFAR | –
11 | CCCCCCCCCC(=O)O [Capric acid, Decanoic acid] | – | – | EC50 (FFAR (R10; GPR40) [1]; concentration response curves, HFF11 reporter cells expressing FFAR, FIG. 3, read-out: EC50): 12.6 µM
12 | CCOC(=O)C(C)(C)Oc1ccc(Cl)cc1 [Clofibrate] | – | inactive | –
13 | COc1ccc(Cl)cc1C(=O)NCCc1ccc(S(=O)(=O)NC(=O)NC2CCCCC2)cc1 [Glibenclamid, Glibenclamide] | – | inactive | –
14 | CCCCCCC(O)CCCCCCCCCCC(=O)O (stereo not drawn) [Hydroxystearic acid, 12-hydroxyoctadecanoic acid] | 8 | – | –
15 | CCCCCCCCCCCC(=O)O [Lauric acid, Dodecanoic acid] | 22.5 | – | –
16 | CC(C)(CCCCCCCCCCC(C)(C)CC(=O)O)CC(=O)O [MEDICA 16, 3,3,14,14-tetramethyl-hexadecanedioic acid] | – | strongly activated FFAR | –
17 | CCCCCCC(O)C/C=C/CCCCCCCC(=O)O (stereo not drawn) [Ricinelaidic acid, 12-hydroxy, trans 9-octadecanoic acid] | 20 | – | –
18 | CCCCCCC(O)C/C=C\CCCCCCCC(=O)O (stereo not drawn) [Ricinoleic acid, 12-hydroxy, cis 9-octadecenoic acid] | 8 | – | –
19 | CCC=CCC=CCC=CCC=CCCCCC(=O)O [Stearidonic acid, cis-6, cis-9, cis-12-15-octadecanoic acid] | 8.9 | – | –
20 | CCCCC/C=C\C/C=C\C/C=C\C/C=C\CCCC(=O)O [arachidonic acid] | – | – | effect on test receptors R1-R9 in the initial screening (orphan receptors R1-R9): no effect; response of the R10 reporter cell line in the initial screening (FFAR (R10; GPR40) [1]): no effect
21 | CCCCCCCCCCCCCCCCCC(=O)O [stearic acid] | – | able to activate the receptor | –
22 | CCCCC/C=C\C/C=C\C/C=C\CCCCC(=O)O [γ-Linoleic acid, cis-6, cis-9, cis-12-octadecanoic acid] | 28.5 | – | –
